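How tested: cells in 96-well plates exposed to compound for 48 hours at five concentrations. At the GI50, growth is halved.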 The source made the active and inactive calls. Cut-off read from the data, not from the text of the source: active = GI50 up to about 1.1 µM and inactive = higher.
Columns and labels:
Experiment in all cases: NCI anticancer screen, dose series, 48 h
IGROV-1 = test system: IGROV-1
SNB-19 = test system: SNB-19
UO-31 = test system: UO-31
Hs-578T = test system: Hs-578T
MDA-MB-435 = test system: MDA-MB-435
MOLT-4 = test system: MOLT-4
SK-MEL-5 = test system: SK-MEL-5
MDA-N = test system: MDA-N
DU-145 = test system: DU-145
A549 = test system: A549
COLO 205 = test system: COLO 205
SW-620 = test system: SW-620
HOP-62 = test system: HOP-62
SK-OV-3 = test system: SK-OV-3
U-251 = test system: U-251
CCRF-CEM = test system: CCRF-CEM
MDA-MB-231 = test system: MDA-MB-231
UACC-257 = test system: UACC-257
HT-29 = test system: HT-29
ACHN = test system: ACHN
NCI-H460 = test system: NCI-H460
HCC 2998 = test system: HCC 2998
M14 = test system: M14
SN12C = test system: SN12C
RXF 393 = test system: RXF 393
OVCAR-3 = test system: OVCAR-3
UACC-62 = test system: UACC-62
T47D = test system: T47D
K562 = test system: K562
SF-539 = test system: SF-539
SNB-75 = test system: SNB-75
SK-MEL-2 = test system: SK-MEL-2
NCI-H522 = test system: NCI-H522
EKVX = test system: EKVX
PC-3 = test system: PC-3
MCF7 = test system: MCF7
CAKI-1 = test system: CAKI-1
SF-268 = test system: SF-268
NCI-H226 = test system: NCI-H226
SF-295 = test system: SF-295
NCI-H23 = test system: NCI-H23
OVCAR-5 = test system: OVCAR-5
HCT-116 = test system: HCT-116
TK-10 = test system: TK-10
OVCAR-4 = test system: OVCAR-4
RPMI-8226 = test system: RPMI-8226
OVCAR-8 = test system: OVCAR-8
HL-60 = test system: HL-60
HOP-92 = test system: HOP-92
786-0 = test system: 786-0
SK-MEL-28 = test system: SK-MEL-28
SR = test system: SR
KM12 = test system: KM12
LOX IMVI = test system: LOX IMVI
HCT-15 = test system: HCT-15
NCI/ADR-RES = test system: NCI/ADR-RES
A498 = test system: A498
Malme-3M = test system: Malme-3M

For `OC(c1ccsc1)c1cc2ccccc2s1` (centres undefined), the GI50 (IGROV-1) was > 10 µM (inactive), the GI50 (SNB-19) was > 10 µM (inactive) and the GI50 (UO-31) was > 10 µM (inactive). The GI50 (Hs-578T) was > 10 µM (inactive), the GI50 (MDA-MB-435) was > 10 µM (inactive) and the GI50 (MOLT-4) was > 10 µM (inactive). For the same molecule, the GI50 (SK-MEL-5) was > 10 µM (inactive), the GI50 (MDA-N) was > 10 µM (inactive) and the GI50 (DU-145) was > 10 µM (inactive). The GI50 (A549) was > 10 µM (inactive), the GI50 (COLO 205) was > 10 µM (inactive) and the GI50 (SW-620) was > 10 µM (inactive). For the same molecule, the GI50 (HOP-62) was > 10 µM (inactive), the GI50 (SK-OV-3) was > 10 µM (inactive) and the GI50 (U-251) was > 10 µM (inactive). For the same molecule, the GI50 (CCRF-CEM) was > 10 µM (inactive), the GI50 (MDA-MB-231) was > 10 µM (inactive) and the GI50 (UACC-257) was > 10 µM (inactive). The GI50 (HT-29) was > 10 µM (inactive), the GI50 (ACHN) was > 10 µM (inactive) and the GI50 (NCI-H460) was > 10 µM (inactive). The GI50 (HCC 2998) was > 10 µM (inactive), the GI50 (M14) was > 10 µM (inactive) and the GI50 (SN12C) was > 10 µM (inactive). The GI50 (RXF 393) was > 10 µM (inactive), the GI50 (OVCAR-3) was > 10 µM (inactive) and the GI50 (UACC-62) was > 10 µM (inactive). For the same molecule, the GI50 (T47D) was > 10 µM (inactive), the GI50 (K562) was > 10 µM (inactive) and the GI50 (SF-539) was > 10 µM (inactive). For the same molecule, the GI50 (SNB-75) was > 10 µM (inactive), the GI50 (SK-MEL-2) was > 10 µM (inactive) and the GI50 (NCI-H522) was > 10 µM (inactive). The GI50 (EKVX) was > 10 µM (inactive), the GI50 (PC-3) was > 10 µM (inactive) and the GI50 (MCF7) was > 10 µM (inactive). For the same molecule, the GI50 (CAKI-1) was > 10 µM (inactive), the GI50 (SF-268) was > 10 µM (inactive) and the GI50 (NCI-H226) was > 10 µM (inactive). For the same molecule, the GI50 (SF-295) was > 10 µM (inactive), the GI50 (NCI-H23) was > 10 µM (inactive) and the GI50 (OVCAR-5) was > 10 µM (inactive). The GI50 (HCT-116) was > 10 µM (inactive), the GI50 (TK-10) was > 10 µM (inactive) and the GI50 (OVCAR-4) was > 10 µM (inactive). For the same molecule, the GI50 (RPMI-8226) was > 10 µM (inactive), the GI50 (OVCAR-8) was > 10 µM (inactive) and the GI50 (HL-60) was > 10 µM (inactive). For the same molecule, the GI50 (HOP-92) was > 10 µM (inactive), the GI50 (786-0) was > 10 µM (inactive) and the GI50 (SK-MEL-28) was > 10 µM (inactive). The GI50 (SR) was > 10 µM (inactive), the GI50 (KM12) was > 10 µM (inactive) and the GI50 (LOX IMVI) was > 10 µM (inactive). The GI50 (HCT-15) was greater than 10 µM and the GI50 (NCI/ADR-RES) was > 10 µM (inactive).
With `O/N=C/[C@H]1COC2(CCCCC2)O1` the GI50 (IGROV-1) was > 100 µM (inactive), the GI50 (SNB-19) was > 100 µM (inactive) and the GI50 (UO-31) was > 100 µM (inactive). The GI50 (Hs-578T) was > 100 µM (inactive), the GI50 (MDA-MB-435) was > 100 µM (inactive) and the GI50 (MOLT-4) was > 100 µM (inactive). The GI50 (SK-MEL-5) was > 100 µM (inactive), the GI50 (MDA-N) was > 100 µM (inactive) and the GI50 (DU-145) was > 100 µM (inactive). For the same molecule, the GI50 (A549) was > 100 µM (inactive), the GI50 (COLO 205) was > 100 µM (inactive) and the GI50 (SW-620) was > 100 µM (inactive). For the same molecule, the GI50 (HOP-62) was > 100 µM (inactive), the GI50 (SK-OV-3) was > 100 µM (inactive) and the GI50 (U-251) was > 100 µM (inactive). For the same molecule, the GI50 (CCRF-CEM) was > 100 µM (inactive), the GI50 (MDA-MB-231) was > 100 µM (inactive) and the GI50 (UACC-257) was > 100 µM (inactive). The GI50 (HT-29) was > 100 µM (inactive), the GI50 (ACHN) was > 100 µM (inactive) and the GI50 (A498) was > 100 µM (inactive). For the same molecule, the GI50 (M14) was > 100 µM (inactive), the GI50 (SN12C) was > 100 µM (inactive) and the GI50 (OVCAR-3) was > 100 µM (inactive). For the same molecule, the GI50 (UACC-62) was > 100 µM (inactive), the GI50 (K562) was > 100 µM (inactive) and the GI50 (SNB-75) was > 100 µM (inactive). The GI50 (SK-MEL-2) was > 100 µM (inactive), the GI50 (EKVX) was > 100 µM (inactive) and the GI50 (PC-3) was > 100 µM (inactive). The GI50 (MCF7) was > 100 µM (inactive), the GI50 (SF-268) was > 100 µM (inactive) and the GI50 (NCI-H226) was > 100 µM (inactive). The GI50 (SF-295) was > 100 µM (inactive), the GI50 (NCI-H23) was > 100 µM (inactive) and the GI50 (OVCAR-5) was > 100 µM (inactive). For the same molecule, the GI50 (HCT-116) was > 100 µM (inactive), the GI50 (TK-10) was > 100 µM (inactive) and the GI50 (OVCAR-4) was > 100 µM (inactive). For the same molecule, the GI50 (RPMI-8226) was > 100 µM (inactive), the GI50 (OVCAR-8) was > 100 µM (inactive) and the GI50 (HOP-92) was 31.6 µM (inactive). For the same molecule, the GI50 (786-0) was > 100 µM (inactive), the GI50 (SK-MEL-28) was > 100 µM (inactive) and the GI50 (KM12) was > 100 µM (inactive). For the same molecule, the GI50 (LOX IMVI) was > 100 µM (inactive), the GI50 (Malme-3M) was > 100 µM (inactive) and the GI50 (HCT-15) was greater than 100 µM. The GI50 (NCI/ADR-RES) was > 100 µM (inactive).
`CSc1nc2c(=O)n(-c3ccccc3)c(=S)n(-c3ccccc3)c2s1` was tested, and the GI50 (IGROV-1) was > 100 µM (inactive), the GI50 (SNB-19) was 14.2 µM (inactive) and the GI50 (UO-31) was > 100 µM (inactive). The GI50 (Hs-578T) was 29.2 µM (inactive), the GI50 (MDA-MB-435) was > 100 µM (inactive) and the GI50 (MOLT-4) was 63.2 µM (inactive). For the same molecule, the GI50 (SK-MEL-5) was > 100 µM (inactive), the GI50 (MDA-N) was > 100 µM (inactive) and the GI50 (DU-145) was > 100 µM (inactive). The GI50 (A549) was > 100 µM (inactive), the GI50 (COLO 205) was > 100 µM (inactive) and the GI50 (SW-620) was > 100 µM (inactive). For the same molecule, the GI50 (HOP-62) was 42 µM (inactive), the GI50 (SK-OV-3) was 81.3 µM (inactive) and the GI50 (U-251) was 38.5 µM (inactive). For the same molecule, the GI50 (CCRF-CEM) was > 100 µM (inactive), the GI50 (MDA-MB-231) was 49.2 µM (inactive) and the GI50 (UACC-257) was > 100 µM (inactive). The GI50 (HT-29) was > 100 µM (inactive), the GI50 (ACHN) was 45.4 µM (inactive) and the GI50 (NCI-H460) was > 100 µM (inactive). The GI50 (HCC 2998) was > 100 µM (inactive), the GI50 (M14) was 70 µM (inactive) and the GI50 (SN12C) was 37.9 µM (inactive). For the same molecule, the GI50 (RXF 393) was 34.4 µM (inactive), the GI50 (OVCAR-3) was 67 µM (inactive) and the GI50 (T47D) was > 100 µM (inactive). The GI50 (K562) was > 100 µM (inactive), the GI50 (SF-539) was 39.9 µM (inactive) and the GI50 (SNB-75) was 41.6 µM (inactive). The GI50 (SK-MEL-2) was > 100 µM (inactive), the GI50 (NCI-H522) was > 100 µM (inactive) and the GI50 (PC-3) was > 100 µM (inactive). For the same molecule, the GI50 (MCF7) was > 100 µM (inactive), the GI50 (SF-268) was 65 µM (inactive) and the GI50 (NCI-H226) was 31.1 µM (inactive). The GI50 (SF-295) was 97.5 µM (inactive), the GI50 (NCI-H23) was > 100 µM (inactive) and the GI50 (OVCAR-5) was > 100 µM (inactive). For the same molecule, the GI50 (HCT-116) was > 100 µM (inactive), the GI50 (TK-10) was 42.1 µM (inactive) and the GI50 (OVCAR-4) was 71.4 µM (inactive). For the same molecule, the GI50 (RPMI-8226) was > 100 µM (inactive), the GI50 (OVCAR-8) was > 100 µM (inactive) and the GI50 (HL-60) was > 100 µM (inactive). For the same molecule, the GI50 (HOP-92) was 25.4 µM (inactive), the GI50 (786-0) was 25.9 µM (inactive) and the GI50 (SK-MEL-28) was > 100 µM (inactive). For the same molecule, the GI50 (SR) was > 100 µM (inactive), the GI50 (KM12) was 49 µM (inactive) and the GI50 (LOX IMVI) was 82 µM (inactive). The GI50 (Malme-3M) was 64.1 µM (inactive), the GI50 (HCT-15) was greater than 100 µM and the GI50 (NCI/ADR-RES) was 85.1 µM (inactive).

From ChEMBL document CHEMBL1201862, “PubChem BioAssay data set” (2004)
